Experimental data reported in patent publication US12245590B2, “Method for controlling weeds” (SUMITOMO CHEMICAL COMPANY, LIMITED, priority 2019, dated 2025).

Assays:
[1] = tested on: Palmer amaranth, waterhemp, kochia, common ragweed or marestail; assay: Pot test, foliar spot treatment of weed patches with the crop growing (Example 2); format: in vivo; conditions: spot foliar treatment of 20% of pot area, 50 g/ha, 150 L/ha, 1% Agri-Dex; weeds and soybean, corn or cotton 14 days old; 21 days in greenhouse
Method: (§1) The evaluation of the herbicidal efficacy is classified into 0 to 100, where the numeral “0” indicates no or little difference in the state of emergence or growth of weeds under test at the time of examination as compared with untreated weeds, and the numeral “100” indicates the complete death of weeds under test or the complete inhibition of emergence or growth of weeds under test.
A pot is filled with soil, and then Palmer amaranth, waterhemp, kochia, common ragweed, or marestail is seeded at a corner portion of the soil, and soybean (Genuity Roundup Ready 2 Xtend), corn (Genuity Roundup Ready 2), or cotton (Genuity Roundup Ready 2 Xtend) is seeded at another corner portion of the soil. The weeds and crops are grown in a greenhouse for 14 days, and a section including vegetation patches of weeds (20% of the area on the pot) is subjected to foliar treatment with a spray liquid of saflufenacil (prepared by diluting Sharpen with water containing 1% (w/v) of adjuvant Agri-Dex) at 50 g/ha (as an application amount in a spot-treated section) and a liquid amount of 150 L/ha (as a liquid amount in a spot-treated section). Thereafter, the weeds and crops are grown in the greenhouse for 21 days. This is defined as the invention plot.

[2] = tested on: Palmer amaranth, waterhemp, kochia, common ragweed or marestail; assay: Pot test, foliar spot treatment of weed patches before seeding the crop (Example 1); format: in vivo; conditions: spot foliar treatment of 20% of pot area, 50 g/ha, 150 L/ha, 1% Agri-Dex; weeds 14 days old; soybean, corn or cotton seeded immediately after; 21 days in greenhouse
Method: as §1
A pot is filled with a soil, and then Palmer amaranth, waterhemp, kochia, common ragweed or marestail is seeded at a corner portion of the soil. The weeds are grown in a greenhouse for 14 days, and a section including vegetation patches of weeds (20% of the area on the pot) is subjected to foliar treatment with a spray liquid of saflufenacil (prepared by diluting a commercially available formulation of saflufenacil (aqueous suspension concentrate containing 29.74% of saflufenacil, Sharpen, manufactured by BASF) with water containing 1% (w/v) of adjuvant Agri-Dex) at 50 g/ha (as an application amount in a spot-treated section) and a liquid amount of 150 L/ha (as a liquid amount in a spot-treated section). Immediately thereafter, soybean (Genuity Roundup Ready 2 Xtend), corn (Genuity Roundup Ready 2), or cotton (Genuity Roundup Ready 2 Xtend) is seeded in a corner portion different from vegetation patches of weeds in the soil, and grown in the greenhouse for 21 days. This is defined as the invention plot.

CC(C)N(C)S(=O)(=O)NC(=O)c1cc(-n2c(=O)cc(C(F)(F)F)n(C)c2=O)c(F)cc1Cl [saflufenacil]
weed control effect of the invention plot compared with comparative plots (no crop seeded; uniform blanket treatment) [1]: excellent weed control effect
weed control effect of the invention plot compared with comparative plots (no crop seeded; uniform blanket treatment) [2]: excellent weed control effect
